Where “and” joins values, the source holds several entries; their conditions need not be identical. Equal entries are not always repeated.
Columns and labels:
HaCaT cells [1] = assay: MTT cell viability assay, HaCaT; assay type: cell-based; settings: Homo sapiens, 48 h treatment
Protocol: (§1) Spontaneously immortalized human keratinocyte HaCaT cells were purchased from Cell Lines Service (CLS, Eppelheim, Germany). Human epidermoid carcinoma A431 cells were obtained from Deutsche Sammlung von Mikroorganismen und Zellkulturen (DSMZ, Braunschweig, Germany). MCF7 (ECACC 86012803) and MCF12A (ECACC10782) cells were purchased from the European Collection of Cell Cultures (Salisbury, Wiltshire, UK). MCF12A cells were cultured in 95% 1:1 mixture of DMEM and Ham’s F12 medium, 20 ng/mL human epidermal growth factor, 500 ng/mL hydrocortisone and 5% horse serum. The other cell lines were cultured in Dulbecco’s modified Eagle’s medium (DMEM) supplemented with 10% fetal bovine serum and 1% (v/v) antibiotics solution. Cells were incubated at 37 °C in an atmosphere consisting of 95% air and 5% CO2 in a humidified incubator until they reached 70% confluency. 1 × 10^6 cells were seeded in 40 mm ø culture dishes. After 24 h of preincubation in DMEM containing 5% of FBS, the cells were treated with resveratrol or its analogs, and the incubation was continued for a subsequent 24 h to assess apoptosis or cell cycle distribution. Then, the cells were harvested. Control cells were treated with DMSO, at a concentration of less than 0.1%.
(§2) The effect of resveratrol and 4′-methylthiostilbenes on cell viability was assessed with MTT assay according to the standard protocol described earlier (Zielińska-Przyjemska et al. [2015]). Briefly, the cells were seeded in 96-well plates at a density of 1 × 10^4 cells/well in 100 μL of growth medium. They were allowed to attach overnight and either resveratrol or the appropriate analog was then added to the culture medium at various concentrations (0–200 μM) for 48 h at 37 °C. The cells were subsequently incubated with MTT (0.5 mg/mL) solution for another 4 h. The water insoluble formazan crystals were solubilized in acidic isopropanol before the measurement of absorbance using a microplate reader (TECAN Infinite M200, TK Biotech, Warsaw, Poland) at 540 and 690 nm. All of the experiments were repeated three times, with at least three measurements per assay.

A431 cells [2] = assay: MTT cell viability assay, A431; assay type: cell-based; settings: Homo sapiens, A-431, A431, 48 h treatment
Protocol: as §1, §2

MCF7 cells [3] = assay: MTT cell viability assay, MCF7; assay type: cell-based, human; settings: MCF7, 48 h treatment
Protocol: as §1, §2

MCF12A cells [4] = assay: Flow cytometry cell cycle analysis, MCF12A; assay type: cell-based, human; settings: 24 h incubation, PI flow cytometry
Protocol: as §1
(§3) The cells harvested after a 24 h incubation with the test compounds were washed with 1 mL of PBS and fixed with 70% ethanol. The ethanol was added dropwise to the cell pellet while vortexing to ensure fixation of all cells and minimizing clumping. After a 30 min incubation, the cells were washed twice in PBS, and 250 µL of a solution containing 50 µg/mL PI, 100 µg/mL RNase A (Sigma, St. Louis, MO, USA) in PBS was added to the pellet and incubated for 30 min at 37 °C in the dark. The stained cells were analyzed by FACSCanto Flow Cytometer (Becton–Dickinson). Camptothecin at a final concentration of 50 nM was used as a positive control. Data analysis and acquisition were performed using FACS Diva software (Becton–Dickinson).

MCF7 cells [5] = assay: Flow cytometry cell cycle analysis, MCF7; assay type: cell-based, human; settings: MCF7, 24 h incubation, PI flow cytometry
Protocol: as §1, §3

[6] = tested on: MCF12A, MCF7, HaCaT and A431 cell lines; assay: TUNEL assay; assay type: cell-based, human; settings: 24 h incubation, versus control
Protocol: as §1
TUNEL assay was applied to detect apoptotic cells using In Situ Cell Death Detection Kit (Roche Diagnostics, Indianapolis, IN, USA). Briefly, after incubation with the test compounds for 24 h, the cells were detached with a 0.5% trypsin–EDTA solution and collected. Cell suspensions were fixed with 4% paraformaldehyde and permeabilized with 0.1% Triton X-100 in 0.1% sodium citrate. After the TUNEL reaction mixture was added, cells were incubated for 1 h at 37 °C in a humidified chamber and samples were analyzed by FACSCanto Flow Cytometer (Becton–Dickinson). Camptothecin at a final concentration of 50 nM was used as a positive control.

[7] = tested on: MCF12A, MCF7, HaCaT and A431 cell lines; assay: Annexin-V/propidium iodide assay; assay type: cell-based, human; settings: 24 h incubation, all four cell lines
Protocol: as §1
Apoptosis and necrosis were detected using Annexin-V-FLUOS Staining Kit assay (Roche Diagnostics GmbH, Mannheim, Germany), according to the manufacturer’s instruction. After have been treated with test compounds for 24 h, the cells were transferred (1 × 10^6 cells in 100 µL of the solution) into 5 mL culture tubes followed by the addition of 2 µL of Annexin-V-Fluos and 2 µL PI. Camptothecin at a final concentration of 50 nM was used as a positive control. Samples were gently mixed and incubated for 15 min at RT (25 °C) in the dark. Fluorescence of cell surface (AV) and DNA-bound PI markers was analyzed with flow cytometry (Becton–Dickinson, San Jose, CA, USA) at 488 nm excitation wavelength, emission 518 and 617 nm for AV and PI, respectively.

MCF12A cells [8] = assay: MTT cell viability assay, MCF12A; assay type: cell-based; settings: Homo sapiens, MCF-12A, 48 h treatment
Protocol: as §1, §2

purified porcine tubulin = target: T1, purified porcine tubulin (Sus scrofa, UniProt P02554); assay: Tubulin polymerization assay in vitro; assay type: biochemical; settings: absorbance at steady state
T1 construct: purified porcine tubulin purchased from Cytoskeleton Inc; purchased Cytoskeleton Inc. (Denver, CO, USA)
T1 sequence (P02554 whole entry): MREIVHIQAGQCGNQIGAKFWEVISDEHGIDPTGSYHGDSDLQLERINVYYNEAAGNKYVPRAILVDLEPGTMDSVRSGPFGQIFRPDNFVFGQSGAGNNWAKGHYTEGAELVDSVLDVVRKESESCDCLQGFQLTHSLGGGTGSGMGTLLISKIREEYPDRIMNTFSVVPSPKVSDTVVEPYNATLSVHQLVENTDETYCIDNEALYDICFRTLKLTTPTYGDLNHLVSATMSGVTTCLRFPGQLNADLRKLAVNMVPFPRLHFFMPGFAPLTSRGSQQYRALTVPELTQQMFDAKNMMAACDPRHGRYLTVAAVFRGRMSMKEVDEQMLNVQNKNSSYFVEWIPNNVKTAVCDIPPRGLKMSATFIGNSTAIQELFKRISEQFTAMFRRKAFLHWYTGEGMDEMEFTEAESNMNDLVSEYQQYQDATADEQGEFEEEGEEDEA
T1 sequence (P02550 whole entry partner): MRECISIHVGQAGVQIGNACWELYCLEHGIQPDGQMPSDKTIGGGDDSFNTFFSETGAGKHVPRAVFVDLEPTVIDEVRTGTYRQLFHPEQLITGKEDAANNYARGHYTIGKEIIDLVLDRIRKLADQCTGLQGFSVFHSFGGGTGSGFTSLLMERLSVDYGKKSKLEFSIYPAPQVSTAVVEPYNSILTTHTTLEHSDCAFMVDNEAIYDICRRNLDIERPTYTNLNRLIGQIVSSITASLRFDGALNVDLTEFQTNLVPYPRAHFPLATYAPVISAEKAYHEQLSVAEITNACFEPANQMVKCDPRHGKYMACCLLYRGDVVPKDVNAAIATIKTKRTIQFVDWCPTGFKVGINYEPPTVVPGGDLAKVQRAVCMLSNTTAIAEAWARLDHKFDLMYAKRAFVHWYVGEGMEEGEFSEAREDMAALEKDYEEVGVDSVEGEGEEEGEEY
Protocol: Tubulin polymerization was assessed with the use of purified porcine tubulin purchased from Cytoskeleton Inc. (Denver, CO, USA) in accordance with a protocol recommended by the manufacturer. Tubulin was dissolved in a buffer containing: 80 mM PIPES pH 6.9, 2 mM MgCl2, 0.5 mM EGTA and 1 mM GTP, at a final concentration of 3 mg/mL and placed in a 96-well plate (0.3 mg per well). The polymerization reaction was started by increasing temperature from 4 to 37 °C upon transfer of the reaction mixture to a pre-warmed plate. The assembly of microtubules was monitored spectrophotometrically by measuring absorbance at 350 nm for 60 min, at a temperature of 37 °C. Paclitaxel was used as stabilizing positive control.

A431 cells [9] = assay: Flow cytometry cell cycle analysis, A431; assay type: cell-based, human; settings: A431, 24 h incubation, PI flow cytometry
Protocol: as §1, with “Control cells were treated with DMSO, at a concentration of less than 0.1%.” left out
(§4) The cells harvested after a 24 h incubation with the test compounds were washed with 1 mL of PBS and fixed with 70% ethanol. […] The stained cells were analyzed by FACSCanto Flow Cytometer (Becton–Dickinson). […]

tubulin = tested on: tubulin; design: method as in Ma and coworkers ([2008]); settings: ref Ma and coworkers ([2008]), cited from earlier work
MCF7 cells [10] = tested on: MCF7 cells; design: method as in Androutsopoulos et al. [2011]; settings: 96 h exposure; ref Androutsopoulos et al. [2011]; cited from earlier work
HaCaT cells [11] = assay: Flow cytometry cell cycle analysis, HaCaT; assay type: cell-based, human; settings: 24 h incubation, PI flow cytometry
Protocol: as §1, with “Control cells were treated with DMSO, at a concentration of less than 0.1%.” left out
as §4

SMILES	IC50 (HaCaT cells [1]) [µM]	IC50 (A431 cells [2]) [µM]	IC50 (MCF7 cells [3]; Homo sapiens, MCF7, 48 h) [µM]	Cell cycle effect (MCF12A cells [4])	Cell cycle effect (MCF7 cells [5])	Number of TUNEL positive cells [6]	Apoptosis induction (Annexin-V/PI) [7]	IC50 (MCF12A cells [8]) [µM]	Tubulin polymerization, steady state level (purified porcine tubulin; 10 µM compound)	also measured
COc1cccc(/C=C/c2ccc(SC)cc2)c1OC [2,3-Dimethoxy-4′-methylthio-trans-stilbene]	51.8 ± 7.3	157 ± 3	10.6 ± 6.1							
COc1cc(OC)c(OC)cc1/C=C/c1ccc(SC)cc1 [2,4,5-MTS, 2,4,5-Trimethoxy-4′-methylthio-trans-stilbene]	50.9 ± 13.3	22.6 ± 7.2	5.1 ± 1.4	G0/G1 phase arrest	G0/G1 phase arrest	statistically significant increase in the number of TUNEL positive cells was observed only in HaCaT and A431	induced apoptosis in all the cell lines	10 ± 3	123.2 % of control and 123.2 ± 4.5 % of control	Tubulin polymerization, steady state level (purified porcine tubulin; 5 µM compound): 106.3 ± 4.2 % of control
COc1ccc(OC)c(/C=C/c2ccc(SC)cc2)c1 [2,5-Dimethoxy-4′-methylthio-trans-stilbene]	65 ± 24.5	47.1 ± 9	10.2 ± 6.6							
COc1ccccc1/C=C/c1ccc(SC)cc1 [2-Methoxy-4′-methylthio-trans-stilbene]	106 ± 9.3	241 ± 10	27.3 ± 12.4							
COc1cc(/C=C/c2ccc(SC)cc2)cc(OC)c1OC [3,4,5-MTS, 3,4,5-Trimethoxy-4′-methylthio-trans-stilbene]	10 ± 4.6	19.3 ± 5.5	2.07	G2/M phase arrest	G2/M phase arrest	statistically significant increase in the number of TUNEL positive cells was observed only in HaCaT and A431	induced apoptosis in all the cell lines	25.7 ± 4.3	132.9 % of control and 132.9 ± 17.1 % of control	IC50 (MCF7 cells [3]): 2.1 ± 0.4 µM; Cell cycle effect (A431 cells [9]): G2/M phase arrest; Tubulin polymerization, steady state level (purified porcine tubulin; 5 µM compound): 113.4 ± 3.6 % of control
COc1cc(/C=C/c2ccc(SC)cc2)cc(OC)c1 [3,5-Dimethoxy-4′-methylthio-trans-stilbene]	25.4 ± 13.9	45.4 ± 7.2	4.8 ± 3.4							
COc1cccc(/C=C/c2ccc(SC)cc2)c1 [3-Methoxy-4′-methylthio-trans-stilbene]	183 ± 38.7	141 ± 2.8	6.6 ± 3.7							
COc1ccc(/C=C/c2cc(OC)c(OC)c(OC)c2)cc1 [DMU-212, 3,4,5,4′-trans-tetramethoxystilbene]										Effect on microtubule polymerization (tubulin; DMU-212 at 2.5 μM versus paclitaxel at 10 μM): comparable to that of paclitaxel; Toxicity in MCF7 cells (MCF7 cells [10]): submicromolar toxicity
CC(=O)O[C@H]1C(=O)[C@@]2(C)[C@H]([C@H](OC(=O)c3ccccc3)[C@]3(O)C[C@H](OC(=O)[C@H](O)[C@@H](NC(=O)c4ccccc4)c4ccccc4)C(C)=C1C3(C)C)[C@]1(OC(C)=O)CO[C@@H]1C[C@@H]2O [Paclitaxel, reference compound]									142.3 % of control and 142.3 ± 9.2 % of control	
Oc1ccc(/C=C/c2cc(O)cc(O)c2)cc1 [Resveratrol, trans-3,4′,5-trihydroxystilbene]	85.2 ± 29.2	49.4 ± 3.8	24.6 ± 3.8	blocked the cell cycle in S-phase	blocked the cell cycle in S-phase	statistically significant in all the cell lines studied	apoptosis was evident in all the tested cell lines	93.5 ± 12.1		Cell cycle effect (HaCaT cells [11]): arrested in G0/G1-phase; Effect on tubulin polymerization (tubulin): does not influence tubulin polymerization; Cell cycle effect (A431 cells [9]): blocked the cell cycle in S-phase

Reference: PMC6214853, “Cytotoxic, tubulin-interfering and proapoptotic activities of 4′-methylthio-trans-stilbene derivatives, analogues of trans-resveratrol” (Cytotechnology, 2018)
